{"source": "patent US10202361B2", "about": "“Pyridazinones as herbicides” (E I DU PONT DE NEMOURS AND COMPANY, priority 2014, dated 2019)", "assay_in_all_cases": "Test D pre-/postemergence controlled growth environment herbicide test", "type_in_all_cases": "in vivo", "settings_in_all_cases": "scale 0 to 100", "key": {"[1]": {"test_system": "barley, winter (winter barley, Hordeum vulgare)", "in_short": "(§1)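 Herbicidal effect, both preemergence (silt loam soil) and postemergence (1- to 4-leaf plants, peat-based medium), was scored 14–21 d post-treatment on a 0–100 control scale relative to untreated plants; applications used a non-phytotoxic solvent formulation with surfactant.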"}, "[2]": {"test_system": "speedwell (bird's-eye speedwell, Veronica persica)", "in_short": "as §1"}, "[3]": {"test_system": "wheat, winter (winter wheat, Triticum aestivum)", "in_short": "as §1"}, "[4]": {"test_system": "field violet (Viola arvensis)", "in_short": "as §1"}, "[5]": {"test_system": "downy bromegrass (Bromus tectorum)", "in_short": "as §1"}, "[6]": {"test_system": "barley, spring (spring barley, Hordeum vulgare)", "in_short": "as §1"}, "[7]": {"test_system": "windgrass (Apera spica-venti)", "in_short": "as §1"}, "[8]": {"test_system": "deadnettle (henbit deadnettle, Lamium amplexicaule)", "in_short": "as §1"}, "[9]": {"test_system": "buckwheat, wild (wild buckwheat, Polygonum convolvulus)", "in_short": "as §1"}, "[10]": {"test_system": "canarygrass (Phalaris minor)", "in_short": "as §1"}, "[11]": {"test_system": "lambsquarters (Chenopodium album)", "in_short": "as §1"}}, "data": [{"smiles": "Cc1cc(=O)n(-c2ccc(F)cc2)nc1Oc1ccnc(C(F)(F)F)c1", "note": "[Compound 14, 2-(4-fluorophenyl)-5-methyl-6-[[2-(trifluoromethyl)-4-pyridinyl]oxy]-3 (2H)-pyridazinone]", "values": [{"measurement": "Plant response rating", "setting": "[1]; Postemergence, 16 g ai/ha", "value": 10}, {"measurement": "Plant response rating", "setting": "[1]; Postemergence, 31 g ai/ha", "value": 15}, {"measurement": "Plant response rating", "setting": "[1]; Postemergence, 62 g ai/ha", "value": 20}, {"measurement": "Plant response rating", "setting": "[1]; Postemergence, 125 g ai/ha", "value": 20}, {"measurement": "Plant response rating", "setting": "[1]; Postemergence, 250 g ai/ha", "value": 25}, {"measurement": "Plant response rating", "setting": "[1]; Preemergence, 16 g ai/ha", "value": 15}, {"measurement": "Plant response rating", "setting": "[1]; Preemergence, 31 g ai/ha", "value": 5}, {"measurement": "Plant response rating", "setting": "[1]; Preemergence, 62 g ai/ha", "value": 5}, {"measurement": "Plant response rating", "setting": "[1]; Preemergence, 125 g ai/ha", "value": 5}, {"measurement": "Plant response rating", "setting": "[1]; Preemergence, 250 g ai/ha", "value": 5}, {"measurement": "Plant response rating", "setting": "[2]; Postemergence, 16 g ai/ha", "value": 100}, {"measurement": "Plant response rating", "setting": "[2]; Postemergence, 31 g ai/ha", "value": 100}, {"measurement": "Plant response rating", "setting": "[2]; Postemergence, 62 g ai/ha", "value": 100}, {"measurement": "Plant response rating", "setting": "[2]; Postemergence, 125 g ai/ha", "value": 100}, {"measurement": "Plant response rating", "setting": "[2]; Postemergence, 250 g ai/ha", "value": 100}, {"measurement": "Plant response rating", "setting": "[2]; Preemergence, 250 g ai/ha", "value": 100}, {"measurement": "Plant response rating", "setting": "[3]; Postemergence, 16 g ai/ha", "value": 5}, {"measurement": "Plant response rating", "setting": "[3]; Postemergence, 31 g ai/ha", "value": 10}, {"measurement": "Plant response rating", "setting": "[3]; Postemergence, 62 g ai/ha", "value": 15}, {"measurement": "Plant response rating", "setting": "[3]; Postemergence, 125 g ai/ha", "value": 15}, {"measurement": "Plant response rating", "setting": "[3]; Postemergence, 250 g ai/ha", "value": 15}, {"measurement": "Plant response rating", "setting": "[3]; Preemergence, 16 g ai/ha", "value": 0}, {"measurement": "Plant response rating", "setting": "[3]; Preemergence, 31 g ai/ha", "value": 5}, {"measurement": "Plant response rating", "setting": "[3]; Preemergence, 62 g ai/ha", "value": 5}, {"measurement": "Plant response rating", "setting": "[3]; Preemergence, 125 g ai/ha", "value": 5}, {"measurement": "Plant response rating", "setting": "[3]; Preemergence, 250 g ai/ha", "value": 10}, {"measurement": "Plant response rating", "setting": "[4]; Postemergence, 16 g ai/ha", "value": 60}, {"measurement": "Plant response rating", "setting": "[4]; Postemergence, 31 g ai/ha", "value": 70}, {"measurement": "Plant response rating", "setting": "[4]; Postemergence, 62 g ai/ha", "value": 65}, {"measurement": "Plant response rating", "setting": "[4]; Postemergence, 125 g ai/ha", "value": 100}, {"measurement": "Plant response rating", "setting": "[4]; Postemergence, 250 g ai/ha", "value": 100}, {"measurement": "Plant response rating", "setting": "[4]; Preemergence, 16 g ai/ha", "value": 85}, {"measurement": "Plant response rating", "setting": "[4]; Preemergence, 31 g ai/ha", "value": 95}, {"measurement": "Plant response rating", "setting": "[4]; Preemergence, 62 g ai/ha", "value": 100}, {"measurement": "Plant response rating", "setting": "[4]; Preemergence, 125 g ai/ha", "value": 95}, {"measurement": "Plant response rating", "setting": "[4]; Preemergence, 250 g ai/ha", "value": 100}, {"measurement": "Plant response rating", "setting": "[5]; Postemergence, 16 g ai/ha", "value": 10}, {"measurement": "Plant response rating", "setting": "[5]; Postemergence, 31 g ai/ha", "value": 10}, {"measurement": "Plant response rating", "setting": "[5]; Postemergence, 62 g ai/ha", "value": 10}, {"measurement": "Plant response rating", "setting": "[5]; Postemergence, 125 g ai/ha", "value": 20}, {"measurement": "Plant response rating", "setting": "[5]; Postemergence, 250 g ai/ha", "value": 20}, {"measurement": "Plant response rating", "setting": "[5]; Preemergence, 16 g ai/ha", "value": 0}, {"measurement": "Plant response rating", "setting": "[5]; Preemergence, 31 g ai/ha", "value": 0}, {"measurement": "Plant response rating", "setting": "[5]; Preemergence, 62 g ai/ha", "value": 0}, {"measurement": "Plant response rating", "setting": "[5]; Preemergence, 125 g ai/ha", "value": 0}, {"measurement": "Plant response rating", "setting": "[5]; Preemergence, 250 g ai/ha", "value": 0}, {"measurement": "Plant response rating", "setting": "[6]; Postemergence, 16 g ai/ha", "value": 5}, {"measurement": "Plant response rating", "setting": "[6]; Postemergence, 31 g ai/ha", "value": 10}, {"measurement": "Plant response rating", "setting": "[6]; Postemergence, 62 g ai/ha", "value": 15}, {"measurement": "Plant response rating", "setting": "[6]; Postemergence, 125 g ai/ha", "value": 20}, {"measurement": "Plant response rating", "setting": "[6]; Postemergence, 250 g ai/ha", "value": 20}, {"measurement": "Plant response rating", "setting": "[6]; Preemergence, 16 g ai/ha", "value": 5}, {"measurement": "Plant response rating", "setting": "[6]; Preemergence, 31 g ai/ha", "value": 10}, {"measurement": "Plant response rating", "setting": "[6]; Preemergence, 62 g ai/ha", "value": 5}, {"measurement": "Plant response rating", "setting": "[6]; Preemergence, 125 g ai/ha", "value": 15}, {"measurement": "Plant response rating", "setting": "[6]; Preemergence, 250 g ai/ha", "value": 5}, {"measurement": "Plant response rating", "setting": "[7]; Postemergence, 16 g ai/ha", "value": 5}, {"measurement": "Plant response rating", "setting": "[7]; Postemergence, 31 g ai/ha", "value": 5}, {"measurement": "Plant response rating", "setting": "[7]; Postemergence, 62 g ai/ha", "value": 10}, {"measurement": "Plant response rating", "setting": "[7]; Postemergence, 125 g ai/ha", "value": 10}, {"measurement": "Plant response rating", "setting": "[7]; Postemergence, 250 g ai/ha", "value": 60}, {"measurement": "Plant response rating", "setting": "[7]; Preemergence, 16 g ai/ha", "value": 10}, {"measurement": "Plant response rating", "setting": "[7]; Preemergence, 31 g ai/ha", "value": 5}, {"measurement": "Plant response rating", "setting": "[7]; Preemergence, 62 g ai/ha", "value": 5}, {"measurement": "Plant response rating", "setting": "[7]; Preemergence, 125 g ai/ha", "value": 35}, {"measurement": "Plant response rating", "setting": "[7]; Preemergence, 250 g ai/ha", "value": 65}, {"measurement": "Plant response rating", "setting": "[8]; Postemergence, 16 g ai/ha", "value": 50}, {"measurement": "Plant response rating", "setting": "[8]; Postemergence, 31 g ai/ha", "value": 60}, {"measurement": "Plant response rating", "setting": "[8]; Postemergence, 62 g ai/ha", "value": 60}, {"measurement": "Plant response rating", "setting": "[8]; Postemergence, 125 g ai/ha", "value": 65}, {"measurement": "Plant response rating", "setting": "[8]; Postemergence, 250 g ai/ha", "value": 80}, {"measurement": "Plant response rating", "setting": "[8]; Preemergence, 16 g ai/ha", "value": 60}, {"measurement": "Plant response rating", "setting": "[8]; Preemergence, 31 g ai/ha", "value": 15}, {"measurement": "Plant response rating", "setting": "[8]; Preemergence, 62 g ai/ha", "value": 40}, {"measurement": "Plant response rating", "setting": "[8]; Preemergence, 125 g ai/ha", "value": 65}, {"measurement": "Plant response rating", "setting": "[8]; Preemergence, 250 g ai/ha", "value": 100}, {"measurement": "Plant response rating", "setting": "[9]; Postemergence, 16 g ai/ha", "value": 55}, {"measurement": "Plant response rating", "setting": "[9]; Postemergence, 31 g ai/ha", "value": 55}, {"measurement": "Plant response rating", "setting": "[9]; Postemergence, 62 g ai/ha", "value": 75}, {"measurement": "Plant response rating", "setting": "[9]; Postemergence, 125 g ai/ha", "value": 70}, {"measurement": "Plant response rating", "setting": "[9]; Postemergence, 250 g ai/ha", "value": 70}, {"measurement": "Plant response rating", "setting": "[9]; Preemergence, 16 g ai/ha", "value": 15}, {"measurement": "Plant response rating", "setting": "[9]; Preemergence, 31 g ai/ha", "value": 15}, {"measurement": "Plant response rating", "setting": "[9]; Preemergence, 62 g ai/ha", "value": 25}, {"measurement": "Plant response rating", "setting": "[9]; Preemergence, 125 g ai/ha", "value": 25}, {"measurement": "Plant response rating", "setting": "[9]; Preemergence, 250 g ai/ha", "value": 100}, {"measurement": "Plant response rating", "setting": "[10]; Postemergence, 16 g ai/ha", "value": 15}, {"measurement": "Plant response rating", "setting": "[10]; Postemergence, 31 g ai/ha", "value": 15}, {"measurement": "Plant response rating", "setting": "[10]; Postemergence, 62 g ai/ha", "value": 15}, {"measurement": "Plant response rating", "setting": "[10]; Postemergence, 125 g ai/ha", "value": 20}, {"measurement": "Plant response rating", "setting": "[10]; Postemergence, 250 g ai/ha", "value": 25}, {"measurement": "Plant response rating", "setting": "[10]; Preemergence, 16 g ai/ha", "value": 5}, {"measurement": "Plant response rating", "setting": "[10]; Preemergence, 31 g ai/ha", "value": 5}, {"measurement": "Plant response rating", "setting": "[10]; Preemergence, 62 g ai/ha", "value": 20}, {"measurement": "Plant response rating", "setting": "[10]; Preemergence, 125 g ai/ha", "value": 35}, {"measurement": "Plant response rating", "setting": "[10]; Preemergence, 250 g ai/ha", "value": 80}, {"measurement": "Plant response rating", "setting": "[11]; Postemergence, 16 g ai/ha", "value": 55}, {"measurement": "Plant response rating", "setting": "[11]; Postemergence, 31 g ai/ha", "value": 60}, {"measurement": "Plant response rating", "setting": "[11]; Postemergence, 62 g ai/ha", "value": 70}, {"measurement": "Plant response rating", "setting": "[11]; Postemergence, 125 g ai/ha", "value": 80}, {"measurement": "Plant response rating", "setting": "[11]; Postemergence, 250 g ai/ha", "value": 90}, {"measurement": "Plant response rating", "setting": "[11]; Preemergence, 16 g ai/ha", "value": 5}, {"measurement": "Plant response rating", "setting": "[11]; Preemergence, 31 g ai/ha", "value": 25}, {"measurement": "Plant response rating", "setting": "[11]; Preemergence, 62 g ai/ha", "value": 20}, {"measurement": "Plant response rating", "setting": "[11]; Preemergence, 125 g ai/ha", "value": 95}, {"measurement": "Plant response rating", "setting": "[11]; Preemergence, 250 g ai/ha", "value": 95}]}]}
